Values joined by “and” are separate entries in the source; they are usually repeats but may differ in a detail not shown here. Identical values can stand only once.
What was measured:
lymphocyte = test: MTT cytotoxic assay; format: cell-based, mouse; settings: mouse spleen cells, 48 hours, MTT
Experimental: Mice were sacrificed by cervical dislocation, and spleens were collected under sterile conditions then teased through a nylon mesh. Erythrocytes were lysed. Cells were washed and resuspended at 5×10^6/ml in RPMI-1640 media supplemented with 10% FBS.
For one 96 well plate assay, 90 μl of cells, 45 μl of sample and 45 μl of RPMI-1640 media with 10% FBS were added into each well with the final volume 180 μl. The negative control wells (containing 90 μl of RPMI-1640 media with 10% FBS and 90 pt of cells), blank control (180 μl of RPMI-1640 media with 10% FBS) were also performed. Incubate plate for 48 hours at 37° C., 5% CO2 in a humidified incubator. 18 μl of MTT solution (5 mg/ml) was added for 6-7 h.
90 μl of MTT lysis solution was added to each well followed by a further incubation at 37° C. for 6-7 h. And the absorbance was measured at 570 nm using a plate reader.

[1] = system: P-388 (murine lymphoma cell); test: Tumor cell proliferation, P-388; format: cell-based; settings: read-out: Inhibitory effect on tumor cell proliferation IC50
T lymphocyte = test: ConA induced T-lymphocyte proliferation ([3H]thymidine); format: cell-based, mouse
Experimental: Mice were sacrificed by cervical dislocation, and spleens were collected under sterile conditions then teased through a nylon mesh. Erythrocytes were lysed. Cells were washed and resuspended at 5×10^6/ml in RPMI-1640 media containing 10% FBS. For one 96 well plate assay, 100 pt of cells, 50 μl of sample and 50 μl of ConA/LPS were added into each well with the final volume 200 μl. The control wells were set up with 50 μl of RPMI-1640 media instead of ConA/LPS.
Plates were incubated for 48 h (ConA) or 60 h (LPS), respectively, at 37° C., 5% CO2 in a humidified incubator. In the last 8 h of incubation, 25 μl (1.9×10^10 Bq) of [^3H]thymidine was added. After plates were incubated for 48 h, the plates (ConA) were stored at −20° C., then after another 12 h, the plates (LPS) were stored at −20° C.
At the end of incubation, pulsed cells were harvested on a glass filter using a cell harvester ([…]96®, TOMTEC) and allowed to dry. Incorporation of radioactive thymidine was determined by using liquid Scintillation and Luminescence Counters (MicroBeta Trilux®, PerkinElmer).

[2] = system: HL-60 (human myeloblastic); test: Tumor cell proliferation, HL-60; format: cell-based; settings: read-out: Inhibitory effect on tumor cell proliferation IC50
[3] = system: ConA-stimulated lymphocytes; test: IL-2 production from ConA-stimulated lymphocytes (ELISA); format: cell-based, mouse; settings: without drug 3724.4
Experimental: Mice were sacrificed by cervical dislocation, and spleens were collected under sterile conditions then teased through a nylon mesh. Erythrocytes were lysed. Cells were washed and resuspended at 5×10^6/ml in RPMI-1640 media with 10% FBS.
1 ml of spleen cells were treated with or without ConA (5 μg/ml) or Sac (1:10000) and in the presence or absence of drugs in a final volume of 2 ml.
After 24 h culture at 37° C., 5% CO2 in a humidified incubator, cell-free supernatant was collected and frozen at −20° C. for ELISA.
IL-2, IL-12p40, IL-10, and IFN-γ levels were determined by Enzyme Linked Immuno Sorbance Assay (ELISA). TMB was taken as the enzyme substrate. The absorbance was measured at 450/570 nm by BioRad microplate reader. The amount of cytokines in sample supernatants were calculated based on standard curve using standard murine cytokines (rIL-2, rIL-12, rIL-10, and rIFN-γ).

rat adjuvant arthritis = test: Rat adjuvant arthritis (AA), drug prevention; format: in vivo
Experimental: SD rats were immunized on day 0 by intradermal injection of Complete Freund's adjuvant (CFA), containing 10 mg heat-inactivated BCG in 1 ml paraffin oil, into the left hind paw in 0.1 ml for each rat. Right hind paw volume was determined before immunization (basic value, day 0) and repeated every 4 days from day 12. The polyarthritis severity was graded on a scale of 0-4: 0=no swelling; 1=isolated phalanx joint involvement; 2=involvement of phalanx joint and digits; 3=involvement of the entire region down to the ankle; 4=involvement of entire paw, including ankle. The maximum joint score was 16 for each rat.
Lymphocyte proliferation assay: Splenocytes were prepared aseptically from AA rat at day 28 and resuspended in RPMI-1640 medium supplemented with 10% fetal bovine serum.
5×10^5 cells each well were inoculated into 96-well plate with ConA or LPS in a final volume of 200 μl. Cells were cultured in 5% CO2 incubator at 37° C. for 48 h. Cells were pulsed with 1.9×10^10 Bq/well of [^3H]-thymidine 7-8 h before harvest. After the culture finished, cells were harvested onto glass fiber filters and the incorporated radioactivity was counted by a Beta Scintillator (MicroBeta Trilux, PerkinElmer Life Sciences).

[4] = system: SGC-7901 (human gastric adenocarcinoma cell); test: Tumor cell proliferation, SGC-7901; format: cell-based; settings: read-out: Inhibitory effect on tumor cell proliferation IC50
[5] = system: MKN-28 (human gastric cancer); test: Tumor cell proliferation, MKN-28; format: cell-based; settings: read-out: Inhibitory effect on tumor cell proliferation IC50
murine T lymphocytes = test: Induction of T lymphocyte apoptosis (PI staining, FACS); format: cell-based, mouse
Experimental: (1) The Tuf-tainer (non-adherent to cells) was pretreated with culture medium for 2 h;
(2) As that described in proliferation assay, Balb/c mice were sacrificed and their spleens were removed aseptically. A single cell suspension was prepared and resuspended in RPMI-1640 media at 5×10^6/ml.
(3) Cells were added to 5 μg/ml ConA or medium;
(4) The cells were cultured in 5% CO2 incubator at 37° C. for 24-96 h;
(5) Cells were collected and washed with PBS, centrifugated at 400 g for 10 min at 4° C.;
(6) The collected cells were shaken 10 s violently and 1 ml ice-cold 70% ethanol was added dropwise, capped and fixed overnight at […].;
(7) The cells were centrifuged at 3000 rpm for 5 min and the ethanol was removed; Incubated cells with 1 ml PI staining buffer at room temperature more than 30 min; FACs analysis was performed with 24 h.

Structure (SMILES): CC(C)[C@]12O[C@H]1[C@@H]1O[C@]13[C@]1(O[C@H]1C[C@@]1(O)C4=C(CC[C@]31C)C(=O)OC4)[C@@H]2O [LLDT-8, (5R)-5-hydroxytriptolide]
- IC50 (concentration required to reduce the viability of cells by 50%) (lymphocyte): 0.0782 µg/mL
- IC50 (lymphocyte; read-out: IC50 (concentration required to reduce the viability of cells by 50%)): 208 nM and 200 nM
- IC50 [1]: 80 nM
- ED50 for inhibiting T lymphocyte proliferation induced by ConA (T lymphocyte; 48 h): 0.05812 µg/mL
- EC50 (T lymphocyte; 48 h, read-out: ED50 for inhibiting T lymphocyte proliferation induced by ConA): 155 nM
- inhibitory activity weaker than CsA (T lymphocyte proliferation) (T lymphocyte; compared with CsA): about 5.4 fold
- IC50 [2]: 81 nM
- IL-2 production by lymphocytes stimulated with ConA, Mean Value ([3]; 0.3 nM): 3857.2 pg/mL
- IL-2 production by lymphocytes stimulated with ConA, Mean Value ([3]; 3 nM): 3494.2 pg/mL
- IL-2 production by lymphocytes stimulated with ConA, Mean Value ([3]; 30 nM): 2872.7 pg/mL
- body weight decrease in AA rat (rat adjuvant arthritis; LLDT-8 3, 1 and 0.2 mg/Kg/d, CsA 10 mg/Kg/d): abrogation of body weight decrease
- immune cell infiltration, synovial tissue proliferation, cartilage erosion (rat adjuvant arthritis; compared with AA model group): marked decrease of immune cell infiltration, smaller degree of synovial tissue proliferation, and less cartilage erosion
- right hind paw swelling and polyarthritic symptoms (rat adjuvant arthritis; i.p. day −2 to day 28, LLDT-8 3, 1 and 0.2 mg/Kg/d, CsA 10 mg/Kg/d): diminished the right hind paw swelling and polyarthritic symptoms
- polyarthritis severity (rat adjuvant arthritis; score 0-4 per paw): amelioration of established polyarthritis
- proliferation of B splenocytes induced by LPS (rat adjuvant arthritis; splenocytes from AA rat at day 28): inhibited the proliferation of B splenocytes induced by LPS
- IC50 [4]: 43 nM
- IC50 [5]: 390 nM
- CD4+ and CD8+ T lymphocytes percentage (murine T lymphocytes): reduced CD4^+ and CD8^+ T lymphocytes percentage
- apoptosis of murine T lymphocytes (murine T lymphocytes; at concentration below or near the IC50 for lymphocyte cytotoxicity): induced the apoptosis of murine T lymphocytes

From patent publication US7626044B2, “Triptolide derivatives and their uses” (priority 2002, dated 2009)
